# Assays:
# [1] = PPE grade observed in the treated patients under anti-cancer drug; type: in vivo, human; details: individual patient before sildenafil
# Protocol: (§1) The first patient had both metastatic pancreatic cancer and a history of mild Raynaud's syndrome.
# (§2) The third patient was a person with a gastro-intestinal stromal tumor (GIST) refractory to imatinib, who was being treated with sunitinib. […] They were treated with topical 2% sildenafil three times daily. To ensure activity in the setting of potentially significant costs for custom formulation, this patient applied topical sildenafil to only their left hand. […] This patient later was dosed with 1% topical sildenafil once per week. In addition, this patient experienced sunitinib-induced gastrointestinal toxicities (enteritis, diarrhea), which were treated with oral sildenafil to allow systemic absorption. The initial dose was 50 mg oral sildenafil daily. […] Thereafter lower doses were used on an as needed basis, including a quarter tablet (50 mg size) given once or twice per week.
# (§3) A fourth patient was a person with metastatic angiosarcoma, who was treated with sunitinib for over four years.
# [2] = patients treated with the agent; cited from earlier work
# [3] = Oral sildenafil treatment of sunitinib-induced gastrointestinal toxicities and hand-foot syndrome (case report); type: in vivo, human; details: third patient; 50 mg oral sildenafil daily
# Protocol: as §2
# [4] = Side effects of sildenafil treatment in the PPE patients; type: in vivo, human
# Protocol: The third patient was a person with a gastro-intestinal stromal tumor (GIST) refractory to imatinib, who was being treated with sunitinib. Despite a gratifying response to sunitinib, they experienced grade 3 sunitinib-related PPE that required frequent dose holding and reduction. They were treated with topical 2% sildenafil three times daily. To ensure activity in the setting of potentially significant costs for custom formulation, this patient applied topical sildenafil to only their left hand. […] After only 3 doses (1 day) they noticed an improvement on the tenderness and redness of their hands. […] The improvement was “like day and night.” The right hand had all of these complications. These were severe enough that the patient had difficulty physically closing their hand more than halfway due to skin thickening as well as pain. Their left hand was completely flexible. After administration to both hands, they were able for the first time in many months to shake hands and make a first without difficulty or pain and they restarted playing their guitar in their church choir. This patient later was dosed with 1% topical sildenafil once per week. In addition, this patient experienced sunitinib-induced gastrointestinal toxicities (enteritis, diarrhea), which were treated with oral sildenafil to allow systemic absorption. The initial dose was 50 mg oral sildenafil daily. […] Thereafter lower doses were used on an as needed basis, including a quarter tablet (50 mg size) given once or twice per week.
# Since each of these patients initially had only one affected skin region treated, followed by treatment of the other similarly affected regions, each patient was able to serve as her/his own control.
# [5] = Topical sildenafil treatment of patients with drug-induced PPE (case reports); type: in vivo, human
# Protocol: Four patients were treated with topical sildenafil for PPE, two with PPE related to capecitabine and two with PPE related to sunitinib. […] This initial clinical experience was outside the context of formal clinical trials, since no such trials were available.
# as §1
# Administration of 5FU was held due to the severity and persistence of the hand-foot syndrome. Topical sildenafil was applied to only the left hand.
# as §2, §3
smiles,measurement,setting,value
CCCCCOC(=O)Nc1nc(=O)n([C@@H]2O[C@H](C)[C@@H](O)[C@H]2O)cc1F [capecitabine],PPE grade under anti-cancer treatment,[1],2-3 grade
same,frequency of any grade (grade 1-3) PPE,[2],≤ 54%
same,frequency of severe (grade 3) PPE,[2],≤ 17%
CCCc1nn(C)c2c(=O)[nH]c(-c3cc(S(=O)(=O)N4CCN(C)CC4)ccc3OCC)nc12 [sildenafil],gastrointestinal toxicities and hand-foot syndrome,[3],rapidly improved
same,time to improvement of gastrointestinal toxicities and hand-foot syndrome,[3],≤ 1 days
same,adverse impact on cancer's response to treatment,[4]; all treated patients,no patient had any suggestion of an adverse impact
same,local or systemic side effects,[4]; all treated patients,No local or systemic side effects
same,"side effects such as headache, chest pain, lightheadedness, spontaneous erections","[4]; third patient, topical 2% three times daily, month of treatment",no side effects
same,patient's pain and size and depth of the digital ulcers,"[5]; first patient (capecitabine, Raynaud's), topical 2% applied to ulcers, within a week",marked improvement
same,PPE of the treated palm,"[5]; first patient, topical, full palm of one hand",significant improvement
same,PPE of treated right hand and foot,"[5]; fourth patient (sunitinib 37.5 mg per day, grade 1 at start), topical 2% in cold cream base",improved markedly
same,time to marked improvement of treated right hand and foot,"[5]; fourth patient, topical 2% in cold cream base",1-2 weeks
same,pain and redness of the left hand,"[5]; second patient (capecitabine/5FU regimens), topical to left hand only, by day 8",improvement
same,hand-foot syndrome in both hands,"[5]; second patient, by day 72",resolved
same,tenderness and redness of hands,"[5]; third patient (sunitinib, grade 3 PPE), topical 2% three times daily, left hand, after 3 doses (1 day)",improvement
same,"multiple blisters, cracks, and callousness","[5]; third patient, topical 2% three times daily, after 4 weeks",resolved essentially completely
same,"pain, redness and blisters","[5]; third patient, topical 2% three times daily, by one week",markedly improved
same,PPE-related symptoms,"[5]; topical sildenafil, patients with capecitabine- or sunitinib-related PPE",significantly improved
CNC(=O)c1cc(Oc2ccc(NC(=O)Nc3ccc(Cl)c(C(F)(F)F)c3)cc2)ccn1 [sorafenib],frequency of any grade (grade 1-3) PPE,[2],≤ 30%
same,frequency of severe (grade 3) PPE,[2],≤ 8%
CCN(CC)CCNC(=O)c1c(C)[nH]c(/C=C2\C(=O)Nc3ccc(F)cc32)c1C [sunitinib],PPE grade under anti-cancer treatment,[1],3 grade
same,frequency of any grade (grade 1-3) PPE,[2],up to 21%
same,frequency of severe (grade 3) PPE,[2],up to 5%
